This passage reports IC50 results from ChEMBL document CHEMBL3596116, “Conformational analysis of peramivir reveals critical differences between free and enzyme-bound states” (Medchemcomm, 2014).

The target in this assay is Neuraminidase (Influenza A virus, UniProt B4URF0). Set-up: species or system unidentified adenovirus.
Sequence of Neuraminidase (B4URF0 whole entry): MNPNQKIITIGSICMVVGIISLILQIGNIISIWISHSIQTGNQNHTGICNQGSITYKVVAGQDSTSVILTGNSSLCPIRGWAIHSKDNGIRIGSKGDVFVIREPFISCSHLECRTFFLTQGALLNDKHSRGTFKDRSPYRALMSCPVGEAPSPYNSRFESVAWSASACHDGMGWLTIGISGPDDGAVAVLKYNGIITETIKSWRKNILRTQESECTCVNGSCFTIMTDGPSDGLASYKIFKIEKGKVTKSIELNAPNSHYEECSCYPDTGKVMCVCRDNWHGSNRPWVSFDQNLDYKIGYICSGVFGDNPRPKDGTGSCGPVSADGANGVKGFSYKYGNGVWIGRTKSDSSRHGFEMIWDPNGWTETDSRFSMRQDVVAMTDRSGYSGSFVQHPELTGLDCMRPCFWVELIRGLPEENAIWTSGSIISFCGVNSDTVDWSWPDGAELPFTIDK

As for `CCC(CC)[C@H](NC(C)=O)[C@@H]1[C@H](O)[C@@H](C(=O)O)C[C@H]1NC(=N)N` [PERAMIVIR ANHYDROUS], the IC50 came out at 0.1 nM.
